Literature values in patent publication US20080248136A1, “ACUTE AND CHRONIC HEARTBURN COMPOSITION AND METHOD” (IOMEDIX DEVELOPMENT INTERNATIONAL SRL, priority 2006, published 2008).

Experiments:
[1] = mice
[2] = test system: mitogen-activated protein kinase signaling; details: signaling stimulated by H. Pylori
[3] = in vivo

For `C=C(C)[C@H]1CC=C(C)CC1` [limonene], the “participants achieving complete relief of symptoms” value (after 2 days of administration) is listed as 20%, the “severity of gastric and esophageal reflux disorder symptoms, as evaluated by subjects” value (daily or every other day administration, after 14 days) is listed as “near complete relief of the symptoms” and the “lasting alleviation of symptoms of gastric and esophageal reflux disorders” value (in certain cases) is listed as “alleviated permanently”. The antinociceptive activity [1] was “has antinociceptive activity”.

In the case of `C=C(C)[C@@H]1CC=C(C(=O)O)CC1` [perillic acid], the “effect on mitogen-activated protein kinase signaling” value [2] is listed as “inhibits”.

In the case of `O=C([O-])[O-].[Ca+2]` [calcium carbonate], the “esophageal pH” value [3] is given as “significantly increased” and the “gastric pH versus placebo” value [3] is given as “remained at or below placebo levels”.

In the case of `[Mg+2].[OH-].[OH-]` [magnesium hydroxide], the “esophageal pH” value [3] is listed as “significantly increased” and the “gastric pH versus placebo” value [3] is listed as “increased gastric pH above placebo levels”.
